Columns and labels:
[1] = system: MCF7 breast cancer cell line; experiment: MTT cell proliferation assay; assay type: cell-based; details: MCF7 control (TR) vs shZNF cells, different doses of ABT888 for 48 hours with or without radiation (2 Gy)
Experimental: Control cells of the MCF7 breast cancer cell line (TR), as well as MCF7 cells transfected with shRNAs targeting ZNF365 (shZNF) were treated with different doses of the PARP inhibitor, ABT888, for 48 hours with or without radiation (2 Gy). A standard MTT cell proliferation assay was performed to determine cell viability.

U2OS cells = experiment: 53BP1-positive DNA damage foci (DSB) staining; assay type: cell-based; details: ZNF365-deficient U2OS cells (shZNF-2 or shZNF-5), additional treatment with 1 μM ABT888
Excerpt: FIGS. 10A-10C show increased DNA double strand breaks (DSB) in ZNF365-deficient cells.
U2OS cells infected with either a control scrambled shRNA (Scr) to establish the basal DSB levels or with either of two independent shRNA sequences targeting ZNF365 (shZNF-2 or shZNF-5) were scored for 53BP1-positive damage foci as an indicator of DSB (FIG. 10A; red highlighted dots indicates foci and dotted circles indicate nuclei). Quantification of the 53BP1-positive foci indicated increased numbers of DSB in ZNF365-deficient cells (FIG. 10B).

For `C[C@]1(c2nc3c(C(N)=O)cccc3[nH]2)CCCN1` [ABT888], the cell viability [1] was “ZNF365 deficiency sensitizes cells” and the “53BP1-positive DNA damage foci as an indicator of DSB” value (U2OS cells) was “became more prominent”.

Reference: patent US10378060B2, “ZNF365/ZFP365 biomarker predictive of anti-cancer response” (Dana-Farber Cancer Institute, Inc., priority 2011, dated 2019)
